# Experimental data published in patent publication US20230340012A1, “NATURAL AND SYNTHETIC COMPOUNDS FOR TREATING CANCER AND OTHER DISEASES” (PACIFIC ARROW LIMITED, priority 2009, published 2023).
# System: cancer cells
# Assay: MTT cytotoxic assay of esterification products (Cytotoxicity activity)
# Type: cell-based, human
# Conditions: MTT cytotoxic assay, isolated esterification products of E4A
# Source text: The peaks, fractions and compounds are selected according to the activities of times studies and the changes of peaks. Selecting the HPLC fractions for isolation is according to the cytotoxic activity of the reaction product obtained at a specific time. The compounds having strong to weak activities are selected and isolated. Selecting the HPLC fractions for isolation may be according to the cytotoxic activity of times studies and the change of peaks. The anti-cancer activities are the MTT studies of bone (U2OS), lung (H460), bladder (HTB-9), ovary (ES2), colon (HCT116), pancreas (Capan), ovary(OVCAR3), prostate (DU145), skin (SK-Mel-5), mouth (KB), kidney (A498), breast (MCF-7), liver (HepG2), brain (T98G), leukemia (K562), cervix (HeLa).
# Esterification of compound (A), (B), (C), (D1), (D2), (E), (F), (G), (H1), (H2), E4A, E4A2Y, (P1), P(2), terpene, isoprene, triterpenes, hydroxylated triterpenes, with acyl halide, wherein the halide comprise chloride, bromide, fluoride and iodide, wherein the acyl halide comprise acyl chloride, wherein acyl chloride comprise tigloyl chloride, angeloyl chloride, acetyl chloride, crotonoyl chloride, 3,3-Dimethylacryloyl chloride, senecioyl chloride, cinnamoyl chloride, pentenoyl chloride, hexanoyl chloride, benzoyl chloride, ethylbutyryl chloride, propionyl chloride, 2-propenoyl chloride, isobutyryl chloride, butyryl chloride, (2E)-2-pentenoyl chloride, 4-Pentenoyl chloride, 5-hexenoyl chloride, heptanoyl chloride, octanoyl chloride, nonanoyl chloride, decanoyl chloride, Lauroyl chloride, myristoyl chloride, oleoyl chloride. The compounds vary in composition when the time or temperature of the reaction is changed. The peaks, fractions and compounds are selected according to the activities of times studies and the changes of peaks. The compounds having strong to weak activities are selected and isolated. The anti-cancer activities (Cytotoxic Assay) are the MTT studies of bone (U2OS), lung (H460), bladder(HTB-9), ovary (ES2), colon (HCT116), pancreas (Capan), ovary(OVCAR3), prostate (DU145), skin (SK-Mel-5), mouth (KB), kidney (A498), breast (MCF-7), liver (HepG2), brain (T98G), leukemia (K562), cervix (HeLa). The active esterification products are purified with HPLC. The reaction product of mixtures and individual compounds are tested with MTT Cytotoxic Assay. Details of method are in Experiment 3 of the present application. A second esterification of compound can be selected from the above experiment results to produce new active compounds. A partial esterification compound is selected from the above experiments to perform a second or repeated with a third esterification with different acyl chloride in order to produce new active compounds with the experiments in the present application.
# Method: 40 mg of triterpene core (fraction IV) was dissolved in 1 ml pyridine in a 50 ml tube. Reaction is started by adding 0.2 ml of acyl chloride (Tigloyl chloride, angeloyl chloride, Acetyl chloride, Crotonoyl chloride, 3,3-Dimethylacryloyl chloride(senecioyl chloride), Cinnamoyl chloride, Pentenoyl chloride, Hexanoyl chloride, benzoyl chloride or Ethylbutyryl chloride). The mixture is stirred for 5 sec, 1 min, 2 min, 5 min, 10 min, 30 min, 1 hr, 2 hr, 18 hr, 2 days or 3 days at 0° C., 25° C. or 75° C. temperature. At the end of reaction, 5 ml of 2N HCl or 1 M NaHCO3 is added to the reaction mixture. The solution is then extracted 3 times with 10 ml of ethyl acetate which is then evaporated under vacuum and at 45C and lyophilization. The reaction product is dissolved in 80% acetonitrile - 0.005% Trifluoroacetic acid or DMSO; and was separated with HPLC. Selecting the HPLC fractions for isolation is according to the cytotoxic activity of the reaction product obtained at a specific reaction time. The active esterification products are purified with HPLC. The reaction product of mixtures and individual compounds are tested with MTT cytotoxic assay. Structures are determined with NMR. […]
row,Compound,Cytotoxicity activity
1,C=CCCC(=O)OCC1(C)C(OC(=O)CCC=C)CCC2(C)C1CCC1(C)C2CC=C2C3CC(C)(C)C(O)C(OC(=O)CCC=C)C3(COC(=O)CCC=C)C(O)CC21C (stereo not drawn) [Compound C9],weak
2,C=CCCC(=O)OCC1(C)C(OC(=O)CCC=C)CCC2(C)C1CCC1(C)C2CC=C2C3CC(C)(C)C(O)C(O)C3(COC(=O)CCC=C)C(OC(=O)CCC=C)CC21C (stereo not drawn) [Compound C10],weak
3,C=CCCC(=O)OCC1(C)C(OC(=O)CCC=C)CCC2(C)C1CCC1(C)C2CC=C2C3CC(C)(C)C(OC(=O)CCC=C)C(O)C3(COC(=O)CCC=C)C(O)CC21C (stereo not drawn) [Compound C11],weak
4,C=CCCC(=O)OCC1(C)C(O)CCC2(C)C1CCC1(C)C2CC=C2C3CC(C)(C)C(O)C(OC(=O)CCC=C)C3(COC(=O)CCC=C)C(OC(=O)CCC=C)CC21C (stereo not drawn) [Compound C12],weak
5,C=CCCC(=O)OCC1(C)C(O)CCC2(C)C1CCC1(C)C2CC=C2C3CC(C)(C)C(OC(=O)CCC=C)C(O)C3(COC(=O)CCC=C)C(OC(=O)CCC=C)CC21C (stereo not drawn) [Compound C13],weak
6,C=CCCC(=O)OCC1(C)C(OC(=O)CCC=C)CCC2(C)C1CCC1(C)C2CC=C2C3CC(C)(C)C(O)C(OC(=O)CCC=C)C3(COC(=O)CCC=C)C(O)CC21C (stereo not drawn) [Compound C14],weak
7,C=CCCC(=O)OCC1(C)C(OC(=O)CCC=C)CCC2(C)C1CCC1(C)C2CC=C2C3CC(C)(C)C(OC(=O)CCC=C)C(OC(=O)CCC=C)C3(COC(=O)CCC=C)C(O)CC21C (stereo not drawn) [Compound C15],weak
8,C=CCCC(=O)OCC1(C)C(O)CCC2(C)C1CCC1(C)C2CC=C2C3CC(C)(C)C(OC(=O)CCC=C)C(OC(=O)CCC=C)C3(COC(=O)CCC=C)C(OC(=O)CCC=C)CC21C (stereo not drawn) [Compound C16],weak
9,C=CCCC(=O)OCC1(C)C(OC(=O)CCC=C)CCC2(C)C1CCC1(C)C2CC=C2C3CC(C)(C)C(OC(=O)CCC=C)C(O)C3(COC(=O)CCC=C)C(OC(=O)CCC=C)CC21C (stereo not drawn) [Compound C17],weak
10,C=CCCC(=O)OCC1(C)C(OC(=O)CCC=C)CCC2(C)C1CCC1(C)C2CC=C2C3CC(C)(C)C(O)C(OC(=O)CCC=C)C3(COC(=O)CCC=C)C(OC(=O)CCC=C)CC21C (stereo not drawn) [Compound C18],weak
11,C=CCCC(=O)OCC1(C)C(OC(=O)CCC=C)CCC2(C)C1CCC1(C)C2CC=C2C3CC(C)(C)C(OC(=O)CCC=C)C(OC(=O)CCC=C)C3(COC(=O)CCC=C)C(OC(=O)CCC=C)CC21C (stereo not drawn) [Compound C19],none
12,C=CCCC(=O)OCC12C(O)CC3(C)C(=CCC4C5(C)CCC(O)C(C)(CO)C5CCC43C)C1CC(C)(C)C(OC(=O)CCC=C)C2OC(=O)CCC=C (stereo not drawn) [Compound C20],moderate
13,C=CCCC(=O)OCC1(C)C(O)CCC2(C)C1CCC1(C)C2CC=C2C3CC(C)(C)C(OC(=O)CCC=C)C(OC(=O)CCC=C)C3(CO)C(O)CC21C (stereo not drawn) [Compound C21],moderate
14,C=CCCC(=O)OC1C(OC(=O)CCC=C)C2(CO)C(OC(=O)CCC=C)CC3(C)C(=CCC4C5(C)CCC(O)C(C)(CO)C5CCC43C)C2CC1(C)C (stereo not drawn) [Compound C22],moderate
15,C=CCCC(=O)OC1C(OC(=O)CCC=C)C2(CO)C(O)CC3(C)C(=CCC4C5(C)CCC(OC(=O)CCC=C)C(C)(CO)C5CCC43C)C2CC1(C)C (stereo not drawn) [Compound C23],moderate
16,CCCCCC(=O)OC1C(OC(=O)CCCCC)C2(CO)C(OC(=O)CCCCC)CC3(C)C(=CCC4C5(C)CCC(O)C(C)(CO)C5CCC43C)C2CC1(C)C (stereo not drawn) [Compound D22],moderate
17,CCCCCC(=O)OC1C(OC(=O)CCCCC)C2(CO)C(O)CC3(C)C(=CCC4C5(C)CCC(OC(=O)CCCCC)C(C)(CO)C5CCC43C)C2CC1(C)C (stereo not drawn) [Compound D23],moderate
18,CCCCCC(=O)OC1C(OC(=O)CCCCC)C2(CO)C(O)CC3(C)C(=CCC4C5(C)CCC(O)C(C)(CO)C5CCC43C)C2CC1(C)C (stereo not drawn) [Compound D24],moderate

row,Compound,Cytotoxicity activity
1,CCCCCC(=O)OCC12C(O)CC3(C)C(=CCC4C5(C)CCC(O)C(C)(CO)C5CCC43C)C1CC(C)(C)C(OC(=O)CCCCC)C2O (stereo not drawn) [Compound D25],moderate
2,CCCCCC(=O)OCC12C(O)CC3(C)C(=CCC4C5(C)CCC(O)C(C)(CO)C5CCC43C)C1CC(C)(C)C(O)C2OC(=O)CCCCC (stereo not drawn) [Compound D26],moderate
3,CCCCCC(=O)OCC12C(O)CC3(C)C(=CCC4C5(C)CCC(OC(=O)CCCCC)C(C)(CO)C5CCC43C)C1CC(C)(C)C(O)C2O (stereo not drawn) [Compound D27],moderate
4,CCCCCC(=O)OCC12C(OC(=O)CCCCC)CC3(C)C(=CCC4C5(C)CCC(O)C(C)(CO)C5CCC43C)C1CC(C)(C)C(O)C2O (stereo not drawn) [Compound D28],moderate
5,CCCCCC(=O)OCC1(C)C(O)CCC2(C)C1CCC1(C)C2CC=C2C3CC(C)(C)C(OC(=O)CCCCC)C(O)C3(CO)C(O)CC21C (stereo not drawn) [Compound D29],moderate
6,CCCCCC(=O)OCC1(C)C(O)CCC2(C)C1CCC1(C)C2CC=C2C3CC(C)(C)C(O)C(OC(=O)CCCCC)C3(CO)C(O)CC21C (stereo not drawn) [Compound D30],moderate
7,CCCCCC(=O)OCC1(C)C(OC(=O)CCCCC)CCC2(C)C1CCC1(C)C2CC=C2C3CC(C)(C)C(O)C(O)C3(CO)C(O)CC21C (stereo not drawn) [Compound D31],moderate
8,CCCCCC(=O)OCC1(C)C(O)CCC2(C)C1CCC1(C)C2CC=C2C3CC(C)(C)C(O)C(O)C3(CO)C(OC(=O)CCCCC)CC21C (stereo not drawn) [Compound D32],moderate
9,CCC(CC)C(=O)OCC1(C)C(O)CCC2(C)C1CCC1(C)C2CC=C2C3CC(C)(C)C(O)C(O)C3(CO)C(O)CC21C (stereo not drawn) [Compound E1],moderate
10,CCC(CC)C(=O)OCC12C(O)CC3(C)C(=CCC4C5(C)CCC(O)C(C)(CO)C5CCC43C)C1CC(C)(C)C(O)C2O (stereo not drawn) [Compound E2],moderate
11,CCC(CC)C(=O)OCC1(C)C(O)CCC2(C)C1CCC1(C)C2CC=C2C3CC(C)(C)C(O)C(O)C3(COC(=O)C(CC)CC)C(O)CC21C (stereo not drawn) [Compound E3],strong
12,CCC(CC)C(=O)OCC1(C)C(O)CCC2(C)C1CCC1(C)C2CC=C2C3CC(C)(C)C(OC(=O)C(CC)CC)C(O)C3(COC(=O)C(CC)CC)C(O)CC21C (stereo not drawn) [Compound E4],moderate
13,CCC(CC)C(=O)OCC1(C)C(O)CCC2(C)C1CCC1(C)C2CC=C2C3CC(C)(C)C(O)C(OC(=O)C(CC)CC)C3(COC(=O)C(CC)CC)C(O)CC21C (stereo not drawn) [Compound E5],moderate
14,CCC(CC)C(=O)OCC1(C)C(OC(=O)C(CC)CC)CCC2(C)C1CCC1(C)C2CC=C2C3CC(C)(C)C(O)C(O)C3(COC(=O)C(CC)CC)C(O)CC21C (stereo not drawn) [Compound E6],moderate
15,CCC(CC)C(=O)OCC1(C)C(O)CCC2(C)C1CCC1(C)C2CC=C2C3CC(C)(C)C(O)C(O)C3(COC(=O)C(CC)CC)C(OC(=O)C(CC)CC)CC21C (stereo not drawn) [Compound E7],moderate
16,CCC(CC)C(=O)OCC1(C)C(O)CCC2(C)C1CCC1(C)C2CC=C2C3CC(C)(C)C(OC(=O)C(CC)CC)C(OC(=O)C(CC)CC)C3(COC(=O)C(CC)CC)C(O)CC21C (stereo not drawn) [Compound E8],weak
17,CCC(CC)C(=O)OCC1(C)C(OC(=O)C(CC)CC)CCC2(C)C1CCC1(C)C2CC=C2C3CC(C)(C)C(O)C(OC(=O)C(CC)CC)C3(COC(=O)C(CC)CC)C(O)CC21C (stereo not drawn) [Compound E9],weak
18,CCC(CC)C(=O)OCC1(C)C(OC(=O)C(CC)CC)CCC2(C)C1CCC1(C)C2CC=C2C3CC(C)(C)C(O)C(O)C3(COC(=O)C(CC)CC)C(OC(=O)C(CC)CC)CC21C (stereo not drawn) [Compound E10],weak
